Measurements from patent US11299493B2, “Heterocyclic compounds and uses thereof” (NUVATION BIO INC., priority 2017, dated 2022).

What was measured:
NCI-H460 cells = assay: Cell proliferation assay (Cell Titer-Glo) in NCI-H460 cells; type: cell-based; details: Homo sapiens, typically 72 h
Protocol: (§1) The effects of test compounds were studied in five cell lines with various histotypes. The cancer cells (Table 4) were harvested during the logarithmic growth period and counted. Adjust cell concentrations to the appropriated number with respective medium, and add 90 μL cell suspensions to 96-well plates. After cells were seeded, the plates were shaken gently to distribute cells evenly and incubated at 37° C., 5% CO2 on day 1.
(§2) Cells were treated with test compounds at 9 concentrations within a desired concentration range (e.g. 1.5 nM-10 μM) on day 2 by series diluting the test compound stock solution (10 mM in DMSO) with culture medium. Cell viability was assessed by Cell Titer-Glo® as recommended by Promega (Cat. No.: G7572, Promega) typically 72 h post-treatment.
(§3) Cell viability data were plotted using GraphPad Prism (version 5, GraphPad Software, Inc., San Diego, Calif.). In addition, a nonlinear regression model with a sigmoidal dose response and variable slope within GraphPad Prism was used to calculate the IC50 value of individual test compounds.

A427 cells [1] = assay: Cell proliferation assay (Cell Titer-Glo) in A427 cells; type: cell-based; details: Homo sapiens, A-427, typically 72 h
Protocol: as §1, §3

A549 cells = assay: Cytotoxicity assay (resazurin) in A549 cells; type: cell-based; details: Homo sapiens, A549, 96 hr, read-out: Cell Viability IC50 A549
Protocol: Cells were allowed to grow at 37° C. for 24 hr in 5% CO2 environment (culture conditions) in a Nuaire incubator (humidified). Serially diluted test compounds (100 μL) within the desired testing concentration ranges were added to the culture plate were further incubated in culture conditions for 72 hr and 96 hr for A427 and A549 respectively. The experiment was terminated at the designated incubation time by replacing the medium with 100 μL of 1 mM of resazurin (R7017; Sigma) prepared in respective culture medium, and the plates were further incubated in culture conditions for 4-6 hr. Fluorescence was recorded using a multimodal plate reader (Biotek Synergy Neo) at an excitation wavelength of 535 nm and emission wavelength of 590 nm to obtain relative fluorescence units. Data analysis was done by subtracting the background fluorescence (only medium blank) value from each reading and then normalizing with the vehicle control (DMSO treated cells) to obtain percent survival/proliferation. Percent survival was then subtracted by 100 to get the percent inhibition of proliferation which was used to calculate IC50 values.

A427 cells [2] = assay: Cytotoxicity assay (resazurin) in A427 cells; type: cell-based; details: Homo sapiens, A-427, A427, 72 hr, read-out: Cell Viability IC50 A427
LoVo cells = assay: Cell proliferation assay (Cell Titer-Glo) in LoVo cells; type: cell-based; details: Homo sapiens, typically 72 h
Protocol: as §1, §2, §3

WEE1 kinase enzyme = WEE1 kinase enzyme (Homo sapiens (Human), UniProt P30291); assay: WEE1 IC50 determination, LanthaScreen Terbium Labeled TR-FRET kinase assay; type: biochemical; details: WEE1 enzyme 1 nM, ATP 10 μM, 1 h
HCT-116 cells = assay: Cell proliferation assay (Cell Titer-Glo) in HCT-116 cells; type: cell-based; details: Homo sapiens; HCT-116, Cell Titer-Glo, typically 72 h; read-out: IC50 HCT116
Protocol: as §1, §2, §3

Chain of WEE1 kinase enzyme (P30291 whole entry): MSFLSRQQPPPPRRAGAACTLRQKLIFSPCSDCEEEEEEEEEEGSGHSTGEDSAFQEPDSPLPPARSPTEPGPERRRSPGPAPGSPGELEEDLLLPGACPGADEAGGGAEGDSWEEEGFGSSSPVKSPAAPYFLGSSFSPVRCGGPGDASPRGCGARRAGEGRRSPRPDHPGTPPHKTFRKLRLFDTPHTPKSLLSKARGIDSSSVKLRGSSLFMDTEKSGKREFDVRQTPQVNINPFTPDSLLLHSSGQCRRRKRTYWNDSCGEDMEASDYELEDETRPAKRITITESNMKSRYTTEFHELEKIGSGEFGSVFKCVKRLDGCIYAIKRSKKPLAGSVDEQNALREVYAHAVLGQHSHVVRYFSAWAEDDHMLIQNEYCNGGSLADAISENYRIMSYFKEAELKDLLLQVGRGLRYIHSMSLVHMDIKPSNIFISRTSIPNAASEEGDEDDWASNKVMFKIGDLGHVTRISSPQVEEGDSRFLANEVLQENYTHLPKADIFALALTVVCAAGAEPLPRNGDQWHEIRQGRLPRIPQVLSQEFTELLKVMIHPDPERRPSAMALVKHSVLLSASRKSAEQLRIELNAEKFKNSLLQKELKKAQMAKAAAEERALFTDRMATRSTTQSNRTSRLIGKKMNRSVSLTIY

## C=CCn1c(=O)c2cnc(Nc3ccc4c(c3)CNCC4)nc2n1-c1cccc(C(C)(C)O)n1 [Example 1.1]
NCI-H460 cells
  IC50: > 10000 nM
A427 cells [1]
  IC50: 64 nM
A549 cells
  IC50: 460 nM
A427 cells [2]
  IC50: 95 nM
LoVo cells
  IC50: 258 nM
WEE1 kinase enzyme
  IC50: 2.4 nM
HCT-116 cells
  IC50: 1040 nM
